Results: patent publication US20150209343A1, “TOPICAL DERMAL COMPOSITIONS” (Allergan, Inc., priority 2014, published 2015)
Values after ≈ are worked out from the molar mass of the structure shown. Like-named read-outs stand apart in the source and are kept apart here.

What was measured:
[1] = Physicochemical properties of tazarotene
[2] = cited from earlier work
[3] = tested on: retinoic acid receptor (RAR) family: RARα, RARβ, and RARγ; details: cited from earlier work

Row | crystalline drug by DSC or PXRD analysis ([1]; at 1% or at 4% in Compritol) | solubility ([1]; isopropyl myristate, oil or lipid, read-out: Solubility in isopropyl myristate) | solubility ([1]; water, read-out: Solubility in water) | Structure (SMILES) | pKa [2] | binding to RARα, RARβ and RARγ [3] | selectivity among RARs [3]
1 | no crystalline drug was detected | 7400 µg/mL (≈ 21.1 mM) | < 1 µg/mL | CCOC(=O)c1ccc(C#Cc2ccc3c(c2)C(C)(C)CCS3)nc1 [Tazarotene, Ethyl 6-[(4,4-dimethylthiochroman-6-yl)ethynyl]nicotinate] | 1.5^(1) |  | 
2 |  |  |  | CC1(C)CCSc2ccc(C#Cc3ccc(C(=O)O)cn3)cc21 [Tazarotenic acid] |  | binds to all three members | relative selectivity for RARβ, and RARγ
